# Laboratory results as given in publication PMC10288869, “Release of an encrypted, highly potent ACE-inhibitory peptide by enzymatic hydrolysis of moth bean (Vigna aconitifolia) protein” (Frontiers in Nutrition, 2023).
# Marks after values point to notes of the source that are not given here. No end group written: not given here.
# Assays:
# [1] = biological target: T1, Angiotensin-converting enzyme (ACE) (Sus scrofa, UniProt F1RRW5); experiment: ACE inhibition activity determination (HHL substrate, colorimetric); format: biochemical, pig; conditions: for ACE inhibition % (before GI digestion): sample 0.1 mg of peptides/ml, 5 mM HHL, pH 8.3, 37°C, 30 min, absorbance 410 nm, mean ± SD, n = 3
# T1 construct: Angiotensin-converting enzyme (ACE) was extracted and purified from pig lung tissues; from tissue; host or cells: pig lung
# T1 sequence (F1RRW5 34-1309): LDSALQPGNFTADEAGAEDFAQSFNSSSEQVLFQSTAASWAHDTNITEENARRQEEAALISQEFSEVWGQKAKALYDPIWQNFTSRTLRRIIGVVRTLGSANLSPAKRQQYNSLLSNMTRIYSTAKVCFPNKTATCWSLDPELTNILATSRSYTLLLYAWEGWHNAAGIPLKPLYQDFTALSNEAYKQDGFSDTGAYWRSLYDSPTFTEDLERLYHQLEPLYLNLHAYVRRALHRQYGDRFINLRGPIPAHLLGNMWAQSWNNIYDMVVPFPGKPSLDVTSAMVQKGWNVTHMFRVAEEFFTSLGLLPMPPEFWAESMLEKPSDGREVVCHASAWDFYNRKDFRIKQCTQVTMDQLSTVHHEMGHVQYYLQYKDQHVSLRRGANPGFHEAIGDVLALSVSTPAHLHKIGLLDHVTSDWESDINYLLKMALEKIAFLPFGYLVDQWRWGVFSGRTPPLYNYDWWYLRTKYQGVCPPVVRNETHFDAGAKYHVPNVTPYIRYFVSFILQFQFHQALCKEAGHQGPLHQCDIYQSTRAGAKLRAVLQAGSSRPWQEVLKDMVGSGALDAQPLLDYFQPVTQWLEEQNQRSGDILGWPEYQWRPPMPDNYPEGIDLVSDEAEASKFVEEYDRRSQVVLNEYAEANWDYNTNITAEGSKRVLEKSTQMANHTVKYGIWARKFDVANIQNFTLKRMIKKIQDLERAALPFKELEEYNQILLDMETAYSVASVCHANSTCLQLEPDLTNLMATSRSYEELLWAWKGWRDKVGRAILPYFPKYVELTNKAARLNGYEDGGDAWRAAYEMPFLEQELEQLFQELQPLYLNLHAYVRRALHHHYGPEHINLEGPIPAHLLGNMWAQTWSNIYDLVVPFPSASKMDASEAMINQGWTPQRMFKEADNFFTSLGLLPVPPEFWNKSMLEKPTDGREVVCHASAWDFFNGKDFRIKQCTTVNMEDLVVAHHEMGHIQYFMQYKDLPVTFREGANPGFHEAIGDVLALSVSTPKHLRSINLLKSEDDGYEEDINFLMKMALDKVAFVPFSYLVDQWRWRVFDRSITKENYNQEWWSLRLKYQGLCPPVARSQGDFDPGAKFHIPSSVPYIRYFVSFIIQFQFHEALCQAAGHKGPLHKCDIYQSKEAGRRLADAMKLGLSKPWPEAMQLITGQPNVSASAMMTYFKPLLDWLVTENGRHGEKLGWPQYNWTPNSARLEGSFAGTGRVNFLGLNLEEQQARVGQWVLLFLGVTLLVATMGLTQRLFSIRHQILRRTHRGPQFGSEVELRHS
# Description: Moth bean seeds (MBS-27 variety) were obtained from Mahatma Phule Krishi Vidyapeeth (MPKV), Rahuri, Maharashtra. Angiotensin-converting enzyme (ACE) was extracted and purified from pig lung tissues according to the protocol described by Abdulazeez Mansurah et al. ([19]). Pig lung tissues were brought from a local slaughterhouse (Deonar Abattoir, Mumbai). Pepsin (1,000 U/mg, from porcine), pancreatin 3x (3 NF/USP, from porcine pancreas), trypsin (>2,000 U/g, from bovine pancreas), and papain (from papaya latex) were purchased from HiMedia Laboratories Pvt. Ltd., Mumbai. HHL (N-Hippuryl- His- Leu hydrate) and captopril were purchased from Sigma–Aldrich Chemicals Private Limited, Bangalore, India. All the chemicals used were of analytical grade.
# (§1) Angiotensin-converting enzyme (ACE) inhibition activity was performed according to Jimsheena et al. ([23]), with minor modifications. In brief, 10 μl (0.1 mg of peptides/ml) of the sample was first incubated with 10 μl of ACE at 37°C for 5 min. Later, 30 μl of 50 mM phosphate buffer (pH 8.3) containing 150 mM NaCl and 50 μl of 5 mM HHL was added and mixed completely. The reaction mixture was kept for incubation in a water bath at 37°C for 30 min. The reaction was terminated by adding 100 μl of 1 M HCl. Subsequently, 200 μl of pyridine and 100 μl of benzene sulfonyl chloride (BSC) were added sequentially to the solution and vortexed for 10 s. The reaction mixture was, then, cooled on ice, and the absorbance was measured at 410 nm using a spectrophotometer. Captopril was used as a reference for comparison. ACE inhibition activity (%) was calculated as follows:
# ACE inhibition % = (1− As/Ac) x 100
# where As is the absorbance of the mixture containing the sample, and Ac is the absorbance of the mixture without inhibitor at 410 nm. IC50 values were determined for each fraction using a plot of ACE activity vs. inhibitor concentration.
# [2] = biological target: T1, Angiotensin-converting enzyme (ACE); experiment: Gastrointestinal digestion simulation (SGF, SIF) followed by ACE inhibition assay; format: in vitro ADME, pig; parameters: increase in ACE inhibitory activity after intestinal digestion simulation / increase in ACE inhibitory activity due to cleavage by pepsin / ACE inhibitory activity decreased to (% of initial) following intestinal digestion simulation: concentration or dose not given beside the values; conditions: for ACE inhibition (%) after SGF: after gastric phase: simulated gastric fluid, pepsin 2,000U/ml, pH 2.5, 2 h; for ACE inhibition (%) after SGF / ACE inhibition (%) After SIF: 37°C, read-out ACE inhibition, mean ± SD, n = 3; for ACE inhibition (%) After SIF: after intestinal phase: simulated intestinal fluid, pancreatin 100U/ml, bile juice, pH 8, 2 h, following gastric phase; for increase in ACE inhibitory activity due to cleavage by pepsin: after gastric phase
# Experimental: as §1, with “follows: […]” for “follows:”
# The peptides synthesized were subjected to GI digestion simulation, as per the procedure described by Minekus et al. ([24]), with minor modifications. Bile juice was prepared according to Versantvoort et al. ([25]). Three steps of digestion (the mouth, stomach, and small intestine) were simulated, and the fluid was prepared to mimic physiological conditions. The composition of the simulated fluid is presented in Supplementary Table S2. The pH of the solution was adjusted by using 5 N NaOH and 6 N HCl. The digestion process was carried out using a stirring water bath at 37°C. Sampling was carried out after each step of digestion, and % ACE inhibition and degree of hydrolysis were calculated. Enzymes were inactivated by heating the fraction at 90°C for 10 min., followed by centrifugation at 10,000 g at 4°C for 15 min. The supernatant obtained was stored at −20°C for later study.
# [3] = biological target: T1, Angiotensin-converting enzyme (ACE); experiment: ACE inhibition kinetics (Lineweaver-Burk plot, Dixon plot); format: biochemical, pig; conditions: HHL 1 to 7.5 mM, peptide 5 and 10 μM
# Experimental: The mechanism of ACE inhibition by a peptide showing the lowest IC50 value was identified by the rate of HHL hydrolysis measured over a range of concentrations (1 to 7.5 mM) by varying concentrations of inhibitory peptide (5 and 10 μM). The analysis was carried out by using a double reciprocal Lineweaver–Burk plot, to determine the mode of ACE inhibition, Michaelis–Menten constant (Km), and the maximum velocity (Vmax). The inhibitor constant (Ki) was determined by the Dixon plot.
# [4] = relative to activity before GI digestion
Substance,ACE inhibition % (before GI digestion) ([1]; synthesized peptide),ACE inhibition (%) after SGF [2],ACE inhibition (%) After SIF [2],also measured
GDTGRQQ [pp-1],21.8 ±2.3^g %,24.0 ± 5.7^g %,7.6 ± 1.2^j %,"ACE inhibitory activity decreased to (% of initial) following intestinal digestion simulation [2, 4]: 35%"
HDTGRQH [pp-8],12.1 ±5.5^i %,11.8 ± 1.3^i %,21.3 ± 0.3^g %,–
IEPLPPR [pp-16],36.0 ± 1.9^e %,30.0 ± 0.4^f %,33.6 ± 3.2^f %,–
TGDTGR [pp-6],3.9 ± 5.5^k %,3.9 ± 1.3^k %,4.2 ± 1.3^k %,–
TGDTGRQH [pp-4],16.5 ± 2.1^g %,18.0 ± 2.9^g %,33.6 ± 1.2^f %,"increase in ACE inhibitory activity after intestinal digestion simulation [2, 4]: 103%"
VEPLPPR [pp-15],55.9 ± 1.3^c %,51.0 ± 3.4^c %,52.3 ± 3.8^c %,–

# The next lines start with results.
ACE inhibition % (before GI digestion) ([1]; synthesized peptide),ACE inhibition (%) after SGF [2],ACE inhibition (%) After SIF [2],Substance,also measured
11.8 ± 2.9^i %,9.8 ± 2.8^i %,14.5 ± 0.5^h %,AENNQR [pp-25],–
13.1 ± 4.7^h %,15.1 ± 0.6^h %,15.6 ± 1.9^h %,ATDETGSK [pp-33],–
93.4 ± 1.7^a %,90.5 ± 4.6^a %,59.6 ± 0.3^b %,FPPPKVIQ [pp-28],"IC50 ([1]; purification steps of ACE-inhibitory peptide, read-out: IC50 (μg/ml) (converted)): 216 nM; IC50 ([1]; synthesized peptide, before GI digestion, read-out: IC50 of ACE inhibition): 240 nM; Ki [3]: 810 nM; IC50 ([2]; after GI digestion simulation (digestion by trypsin in intestinal phase)): 20000 nM; ACE inhibition (%) After SIF ([2]; listed as FPPPKVIQ): ~ 59%"
34.3 ± 7.7^e %,31.1 ± 0.7^e %,6.2 ± 4.3^j %,HPGDDKS [pp-30],"ACE inhibitory activity decreased to (% of initial) following intestinal digestion simulation [2, 4]: 18%"
8.2 ± 4.3^i %,9.6 ± 0.5^i %,15.3 ± 3.6^h %,HVDSGK [pp-18],"increase in ACE inhibitory activity after intestinal digestion simulation [2, 4]: 86%"
23.6 ± 6.9^g %,21.1 ± 0.8^g %,19.0 ± 1.8^g %,ISGGSSR [pp-39],–
6.4 ± 1.0^j %,21.5 ± 3.4^g %,18.8 ± 9.9^g %,LTAEHPVV [pp-44],"increase in ACE inhibitory activity due to cleavage by pepsin [2, 4]: 236%"
47.1 ±6.7^d %,41.4 ± 2.2^d %,15.0 ± 0.6^h %,NNPHR [pp-24],"reduction in ACE inhibitory activity after intestinal digestion simulation [2, 4]: 68%"
41.9 ± 6.9^d %,74.3 ± 2.2^b %,17.9 ± 1.8^g %,TFAPGF [pp-45],"increase in ACE inhibitory activity due to cleavage by pepsin [2, 4]: 77%"
